Molecular target: CDK9/CycT1 (Homo sapiens, UniProt P50750)
Experiment: Off-chip mobility shift assay (MSA) on CDK9/CycT1
Format: biochemical
Parameters: Full-length human CDK9 [1-372(end) amino acids of; host or cells: baculovirus expression system
Settings: 4-point concentration (0.0016, 0.008, 0.04, 0.2 uM), ATP 10 μM, reaction time 5 hours, read-out: CDK9/CycT1/nM (inhibitory activity)
Method: Prepare 100× concentrated Test compound stock solutions with DMSO. Then, Dilute the solution 25 times with Assay Buffer (20 mM HEPES, 0.01% Triton X-100, 2 mM DTT, pH7.5) to prepare 4× test compound solutions.
Test compounds were evaluated at 4-point concentration (0.0016, 0.008, 0.04, 0.2 uM). • 1) Mix 5 μL of 4× test compound solution with 5 μL of 4× substrate/ATP/Metal solution and 10 μL of 2× kinase solution in 384-well polypropylene plate. Incubate for 5 hours at room temperature. • 2) Add 70 μL of Termination Buffer (QuickScout Screening Assist MSA; Carna Biosciences) to stop the reaction. • 3) Separate and detect unphosphorylated/phosphorylated substrate peptides in the reactant using LabChip system (Perkin Elmer). • 4) Evaluate kinase reaction from product ratio (P/(P+S)) calculated by peak height of unphosphorylated substrate(S) and peak height of phosphorylated substrate (P).

Sequence of CDK9/CycT1 (P50750 whole entry): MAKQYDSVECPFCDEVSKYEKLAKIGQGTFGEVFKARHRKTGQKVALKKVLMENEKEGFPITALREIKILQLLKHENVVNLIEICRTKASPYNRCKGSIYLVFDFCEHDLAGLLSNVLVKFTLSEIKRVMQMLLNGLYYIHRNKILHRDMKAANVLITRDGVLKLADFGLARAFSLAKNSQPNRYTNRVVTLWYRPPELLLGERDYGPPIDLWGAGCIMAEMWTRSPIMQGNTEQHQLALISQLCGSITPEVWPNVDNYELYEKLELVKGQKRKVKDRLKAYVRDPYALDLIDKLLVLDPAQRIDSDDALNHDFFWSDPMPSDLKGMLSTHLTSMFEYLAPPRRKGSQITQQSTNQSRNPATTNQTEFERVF
Sequence of CDK9/CycT1 (O60563 whole entry partner): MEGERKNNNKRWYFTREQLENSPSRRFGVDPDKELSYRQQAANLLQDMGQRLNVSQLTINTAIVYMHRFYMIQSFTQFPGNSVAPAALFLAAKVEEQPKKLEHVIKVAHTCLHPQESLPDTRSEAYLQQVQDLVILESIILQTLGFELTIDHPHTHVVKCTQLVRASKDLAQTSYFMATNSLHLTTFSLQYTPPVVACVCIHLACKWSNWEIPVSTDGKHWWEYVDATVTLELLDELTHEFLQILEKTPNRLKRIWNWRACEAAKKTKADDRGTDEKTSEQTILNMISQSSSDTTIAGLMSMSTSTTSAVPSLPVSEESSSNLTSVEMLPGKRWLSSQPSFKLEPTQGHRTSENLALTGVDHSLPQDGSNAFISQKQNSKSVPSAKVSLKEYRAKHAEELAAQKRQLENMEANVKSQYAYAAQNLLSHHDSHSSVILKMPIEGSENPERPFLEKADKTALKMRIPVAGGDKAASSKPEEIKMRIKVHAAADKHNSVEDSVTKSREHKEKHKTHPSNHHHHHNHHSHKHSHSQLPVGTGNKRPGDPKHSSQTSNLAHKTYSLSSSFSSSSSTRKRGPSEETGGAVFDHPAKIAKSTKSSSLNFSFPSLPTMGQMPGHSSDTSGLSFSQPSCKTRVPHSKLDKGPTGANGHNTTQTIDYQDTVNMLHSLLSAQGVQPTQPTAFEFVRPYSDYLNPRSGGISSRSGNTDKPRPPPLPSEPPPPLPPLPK

`CC(C)Nc1nc([C@@H](C)O)cc2cnc(NC3CC[C@H](C(=O)O)C3)nc12` (stereo in doubt) [Compound 77, (1S,3R)-3-((6-((R)-1-hydroxyethyl)-8-(isopropylamino)pyrido[3,4-d]pyrimidin-2-yl)amino)cyclopentane-1-carboxylic acid] showed an IC50 of 85 nM.
Work on `CC(=O)N[C@@H]1CCC[C@H](C(=O)Nc2cc3c(NC(C)C)nc(C(F)F)cc3cn2)C1` [Compound 1, (1S,3R)-3-acetamido-N-(7-(difluoromethyl)-5-(isopropylamino)-2,6-naphthyridin-3-yl)cyclohexane-1-carboxamide] yielded an IC50 of 7 nM.
Work on `CC(C)Nc1nc([C@@H](C)O)cc2cnc(N[C@H]3CC[C@H](NC(=O)CN(C)C)CC3)nc12` [Compound 63, 2-(dimethylamino)-N-((1R,4r)-4-((6-((R)-1-hydroxyethyl)-8-(isopropylamino)pyrido[3,4-d]pyrimidin-2-yl)amino)cyclohexyl)acetamide] yielded an IC50 of 14 nM.
With `C[C@@H](O)c1cc2cnc(N[C@H]3CC[C@H](NC(=O)CN(C)C)CC3)nc2c(NCC(C)(C)C)n1` [Compound 64, 2-(dimethylamino)-N-((1R,4r)-4-((6-((R)-1-hydroxyethyl)-8-(neopentylamino)pyrido[3,4-d]pyrimidin-2-yl)amino)cyclohexyl)acetamide] the IC50 was 26 nM.
`CC(=O)N[C@H]1CC[C@H](Nc2ncc3cc([C@@H](C)O)nc(NC(C)C)c3n2)CC1` [Compound 65, N-((1R,4r)-4-((6-((R)-1-hydroxyethyl)-8-(isopropylamino)pyrido[3,4-d]pyrimidin-2-yl)amino)cyclohexyl)acetamide] gave an IC50 of 21 nM.
With `CC(C)Nc1nc(C#N)cc2cnc(N[C@H]3CC[C@H](NC(=O)CN(C)C)CC3)nc12` [Compound 66, N-((1r,4r)-4-((6-cyano-8-(isopropylamino)pyrido[3,4-d]pyrimidin-2-yl)amino)cyclohexyl)-2-(dimethylamino)acetamide] the IC50 was 5 nM.
`CC(C)Nc1nc([C@@H](C)O)cc2cnc(N[C@H]3CC[C@H](N4CCN(C)CC4)CC3)nc12` [Compound 67, (R)-1-(8-(isopropylamino)-2-(((1r,4R)-4-(4-methylpiperazin-1-yl)cyclohexyl)amino)pyrido[3,4-d]pyrimidin-6-yl)ethan-1-ol] was tested, and the IC50 was 10 nM.
Molecule `CC(C)Nc1nc([C@@H](C)O)cc2cnc(NCC3CCN(S(C)(=O)=O)CC3)nc12` [Compound 68, (R)-1-(8-(isopropylamino)-2-(((1-(methylsulfonyl)piperidin-4-yl)methyl)amino)pyrido[3,4-d]pyrimidin-6-yl)ethan-1-ol] has an IC50 of 82 nM.
In the case of `CC(=O)N1CCC(CNc2ncc3cc([C@@H](C)O)nc(NC(C)C)c3n2)CC1` [Compound 69, (R)-1-(4-(((6-(1-hydroxyethyl)-8-(isopropylamino)pyrido[3,4-d]pyrimidin-2-yl)amino)methyl)piperidin-1-yl)ethan-1-one], the IC50 is reported as 81 nM.
Molecule `CC(C)Nc1nc([C@@H](C)O)cc2cnc(NCC3CCCN(S(C)(=O)=O)C3)nc12` (stereo partly drawn) [Compound 70, (1R)-1-(8-(isopropylamino)-2-(((1-(methylsulfonyl)piperidin-3-yl)methyl)amino)pyrido[3,4-d]pyrimidin-6-yl)ethan-1-ol] has an IC50 of 61 nM.
`CC(=O)N[C@H]1CC[C@H](CNc2ncc3cc([C@@H](C)O)nc(NC(C)C)c3n2)CC1` [Compound 72, N-((1R,4r)-4-(((6-((R)-1-hydroxyethyl)-8-(isopropylamino)pyrido[3,4-d]pyrimidin-2-yl)amino)methyl)cyclohexyl)acetamide] gave an IC50 of 97 nM.
With `CC(C)Nc1nc([C@@H](C)O)cc2cnc(NC[C@H]3CC[C@H](NS(C)(=O)=O)CC3)nc12` [Compound 73, N-((1R,4r)-4-(((6-((R)-1-hydroxyethyl)-8-(isopropylamino)pyrido[3,4-d]pyrimidin-2-yl)amino)methyl)cyclohexyl)methanesulfonamide] the IC50 was 61 nM.
`CC(C)Nc1nc([C@@H](C)O)cc2cnc(N[C@H]3CC[C@H](NC4CCOCC4)CC3)nc12` [Compound 74, (R)-1-(8-(isopropylamino)-2-(((1r,4R)-4-((tetrahydro-2H-pyran-4-yl)amino)cyclohexyl)amino)pyrido[3,4-d]pyrimidin-6-yl)ethan-1-ol] was tested, and the IC50 was 19 nM.
Work on `CC(C)Nc1nc([C@@H](C)O)cc2cnc(N[C@H]3CC[C@H](O)CC3)nc12` [Compound 75, (1R,4r)-4-((6-((R)-1-hydroxyethyl)-8-(isopropylamino)pyrido[3,4-d]pyrimidin-2-yl)amino)cyclohexan-1-ol] yielded an IC50 of 36 nM.
In the case of `CC(C)Nc1nc([C@@H](C)O)cc2cnc(N[C@H]3CC[C@H](N)CC3)nc12` [Compound 76, (R)-1-(2-(((1r,4R)-4-aminocyclohexyl)amino)-8-(isopropylamino)pyrido[3,4-d]pyrimidin-6-yl)ethan-1-ol], the IC50 is reported as 10 nM.
Molecule `CNC(=O)[C@H]1CC[C@@H](Nc2ncc3cc([C@@H](C)O)nc(NC(C)C)c3n2)C1` [Compound 79, (1S,3R)-3-((6-((R)-1-hydroxyethyl)-8-(isopropylamino)pyrido[3,4-d]pyrimidin-2-yl)amino)-N-methylcyclopentane-1-carboxamide] has an IC50 of 23 nM.
For `CC(C)Nc1nc([C@@H](C)O)cc2cnc(N[C@H]3CC[C@H](NC4COC4)CC3)nc12` [Compound 80, (R)-1-(8-(isopropylamino)-2-(((1r,4R)-4-(oxetan-3-ylamino)cyclohexyl)amino)pyrido[3,4-d]pyrimidin-6-yl)ethan-1-ol], the IC50 was 12 nM.
Work on `CC(C)Nc1nc([C@@H](C)O)cc2cnc(NC[C@H]3CC[C@H](N)CC3)nc12` [Compound 82, (R)-1-(2-((((1r,4R)-4-aminocyclohexyl)methyl)amino)-8-(isopropylamino)pyrido[3,4-d]pyrimidin-6-yl)ethan-1-ol] yielded an IC50 of 63 nM.
For `CC(C)Nc1nc([C@@H](C)O)cc2cnc(NCC3CCNCC3)nc12` [Compound 84, (R)-1-(8-(isopropylamino)-2-((piperidin-4-ylmethyl)amino)pyrido[3,4-d]pyrimidin-6-yl)ethan-1-ol], the IC50 was 47 nM.
Molecule `CC(C)Nc1nc([C@@H](C)O)cc2cnc(NCCCO)nc12` [Compound 85, (R)-3-((6-(1-hydroxyethyl)-8-(isopropylamino)pyrido[3,4-d]pyrimidin-2-yl)amino)propan-1-ol] has an IC50 of 64 nM.
For `CC(C)Nc1nc([C@@H](C)O)cc2cnc(NC(=O)[C@@H]3CCCNC3)cc12` [Compound 86, (R)—N-(7-((R)-1-hydroxyethyl)-5-(isopropylamino)-2,6-naphthyridin-3-yl)piperidine-3-carboxamide], the IC50 was 50 nM.
In the case of `CC(=O)c1cc2cnc(N[C@H]3CC[C@H](O)CC3)nc2c(NC(C)C)n1` [Compound 88, 1-(2-(((1r,4r)-4-hydroxycyclohexyl)amino)-8-(isopropylamino)pyrido[3,4-d]pyrimidin-6-yl)ethan-1-one], the IC50 is reported as 44 nM.
`CC(C)Nc1nccc2cnc(N[C@H]3CC[C@H](O)CC3)nc12` [Compound 89, (1r,4r)-4-((8-(isopropylamino)pyrido[3,4-d]pyrimidin-2-yl)amino)cyclohexan-1-ol] was tested, and the IC50 was 24 nM.
For `CC(C)Nc1nc(C(F)F)cc2cnc(N[C@H]3CC[C@H](O)CC3)nc12` [Compound 91, (1r,4r)-4-((6-(difluoromethyl)-8-(isopropylamino)pyrido[3,4-d]pyrimidin-2-yl)amino)cyclohexan-1-ol], the IC50 was 6 nM.

Reference: patent US20250163043A1 (TRANSTHERA SCIENCES (NANJING), INC., priority 2021, published 2025)
